Laboratory results as given in patent US20060069110A1, “Substituted heterocyclic compounds and methods of use” (priority 2004, published 2006).

Test system: THP1 cells (LPS induced TNF release)
Assay: Lipopolysaccharide-Activated THP1 Cell TNF Production Assay
Type: cell-based
Conditions: Homo sapiens, THP-1; THP1 cells, bacterial LPS, secreted TNF-α after 3 h at 37° C.; read-out: IC50 values in the THP1 cell assay (LPS induced TNF release)
Method: Lipopolysaccharide-Activated THP1 Cell TNF Production Assay
THP1 cells are resuspended in fresh THP1 media (RPMI 1640, 10% heat-inactivated FBS, 1×PGS, 1×NEAA, plus 30 μM βME) at a concentration of 1E6/mL. One hundred microliters of cells per well are plated in a polystyrene 96-well tissue culture. One microgram per mL of bacterial LPS is prepared in THP1 media and is transferred to the wells. Test compounds are dissolved in 100% DMSO and are serially diluted 3 fold in a polypropylene 96-well microtiter plate (drug plate). HI control and LO control wells contain only DMSO. One microliter of test compound from the drug plate followed by 10 μL of LPS are transferred to the cell plate. The treated cells are induced to synthesize and secrete TNF-α at 37° C. for 3 h. Forty microliters of conditioned media are transferred to a 96-well polypropylene plate containing 110 μL of ECL buffer (50 mM Tris-HCl pH 8.0, 100 mM NaCl, 0.05% Tween 20, 0.05% NaN3 and 1% FBS) supplemented with 0.44 nM MAB610 monoclonal Ab (R&D Systems), 0.34 nM ruthenylated AF210NA polyclonal Ab (R&D Systems) and 44 μg/mL sheep anti-mouse M280 Dynabeads (Dynal). After a 2 h incubation at RT with shaking, the reaction is read on the ECL M8 Instrument (IGEN Inc.). A low voltage is applied to the ruthenylated TNF-α immune complexes, which in the presence of TPA (the active component in Origlo), results in a cyclical redox reaction generating light at […]. The amount of secreted TNF-α in the presence of compound compared with that in the presence of DMSO vehicle alone (HI control) is calculated using the formula: % control (POC)=(cpd−average LO)/(average HI−average LO)*100. Data (consisting of POC and inhibitor concentration in μM) is fitted to a 4-parameter equation (y=A+((B−A)/(1+((×/C)ôD))), where A is the minimum y (POC) value, B is the maximum y (POC), C is the x (cpd concentration) at the point of inflection and D is the slope factor) using a Levenburg-Marquardt non-linear regression algorithm.

IC50 [µM] | Structure (SMILES)
≤ 20 | CNC(=O)[C@@H](Cc1ccccc1)Nc1nccc(N(C)c2ccnc(-c3ccccc3)n2)n1 [Example 46, (R)-N-Methyl-2-(4-(methyl(2-phenylpyrimidin-4-yl)amino)pyrimidin-2-ylamino)-3-phenylpropanamide]
≤ 20 | CN(c1cccc(-c2ccc(Cl)cc2)n1)c1ccnc(NCCc2ccccc2)n1 [Example 134, N^4-(6-(4-Chlorophenyl)pyridin-2-yl)-N^4-methyl-N^2-phenethylpyrimidine-2,4-diamine]
≤ 20 | CC(C)[C@H](CC(=O)N1CCOCC1)Nc1nccc(N(C)c2ccnc(-c3ccccc3)n2)n1 [Example 61]
≤ 20 | C[C@H](NC(=O)OC(C)(C)C)c1cccc(CCNc2nccc(N(C)c3ccnc(-c4ccccc4)n3)n2)c1 [Example 20, (S)-tert-Butyl 1-(3-(2-(4-(methyl(2-phenylpyrimidin-4-yl)amino)pyrimidin-2-yl-amino)ethyl)phenyl)ethylcarbamate]
≤ 20 | CN(c1nc(NCCc2cccnc2)ncc1F)c1nc(-c2ccccc2)ncc1F [Example 69, 5-Fluoro-N^4-(5-fluoro-2-phenylpyrimidin-4-yl)-N^4-methyl-N^2-(2-(pyridin-3-yl)-ethyl)pyrimidine-2,4-diamine]
≤ 20 | CN(c1ccnc(NCCc2ccccn2)n1)c1cc(O)nc(-c2ccccc2)n1 [Example 120, 6-(Methyl(2-(2-(pyridin-2-yl)ethylamino)pyrimidin-4-yl)amino)-2-phenylpyrimidin-4-ol]
≤ 20 | CN(c1ccnc(NCCc2cccnc2)n1)c1nc(-c2ccccc2)ncc1C(N)=O [Example 64, 4-(Methyl(2-(2-(pyridin-3-yl)ethylamino)pyrimidin-4-yl)amino)-2-phenyl-pyrimidine-5-carboxamide]
≤ 20 | CN(c1ccnc(NC2CCNCC2)n1)c1ccnc(-c2ccccc2)n1 [Example 16, N^4-Methyl-N^4-(2-phenylpyrimidin-4-yl)-N^2-(piperidin-4-yl)pyrimidine-2,4-diamine]
≤ 20 | C[C@@H](Cc1cccc(-n2ccnc2)c1)Nc1nccc(N(C)c2ccnc(-c3ccccc3)n2)n1 [Example 116, N^2-((S)-1-(3-(1 H-Imidazol-1-yl)phenyl)propan-2-yl)-N^4-methyl-N^4-(2-phenyl-pyrimidin-4-yl)pyrimidine-2,4-diamine]
≤ 20 | CN(c1cccc(C2=CCCCC2)n1)c1ccnc(NCCc2ccccc2)n1 [Example 148, N^4-(6-cyclohexenylpyridin-2-yl)-N^4-methyl-N^2-phenethylpyrimidine-2,4-diamine]
≤ 20 | CN(c1ccnc(NCCc2cccnc2)n1)c1ccnc(-c2ccccc2)n1 [Example 15, N^4-Methyl-N^4-(2-phenylpyrimidin-4-yl)-N^2-(2-(pyridin-3-yl)ethyl)pyrimidine-2,4-diamine]
≤ 20 | CN(c1cnc(OCc2ccccc2)c(-c2ccccc2)c1)c1ccnc(NC2CCNCC2)n1 [N^4-(6-(Benzyloxy)-5-phenylpyridin-3-yl)-N^4-methyl-N^2-(piperidin-4-yl)-pyrimidine-2,4-diamine]
≤ 20 | CN(c1ccnc(N[C@H](Cc2ccccc2)C(=O)O)n1)c1ccnc(-c2ccccc2)n1 [Example 45, (R)-2-(4-(Methyl(2-phenylpyrimidin-4-yl)amino)pyrimidin-2-ylamino)-3-phenyl-propanoic acid]
≤ 20 | C[C@@H](Cc1cccc(CNC(=O)OC(C)(C)C)c1)Nc1nccc(N(C)c2cc(-c3ccccc3)c(=O)n(C)c2)n1 [(S)-tert-Butyl-3-(2-(4-(methyl(1-methyl-6-oxo-5-phenyl-1,6-dihydro-pyridin-3-yl)amino)pyrimidin-2-ylamino)propyl)benzylcarbamate]
≤ 20 | C[C@@H](Cc1cccc(C(C)(C)N)c1)Nc1nccc(N(C)c2ccnc(-c3ccccc3)n2)n1 [Example 29, (S)-N^2-(1-(3-(2-Aminopropan-2-yl)phenyl)propan-2-yl)-N^4-methyl-N^4-(2-phenylpyrimidin-4-yl)pyrimidine-2,4-diamine]
≤ 20 | CN(c1ccnc(NCCc2ccccc2)n1)c1nccc(-c2ccccc2)n1 [Example 184, N^4-Methyl-N^2-phenethyl-N^4-(4-phenylpyrimidin-2-yl)pyrimidine-2,4-diamine]
≤ 20 | C[C@@H](Cc1cccc(CN)c1)Nc1nccc(N(C)c2ccnc(-c3ccccc3)n2)n1 [Example 89, (S)-N^2-(1-(3-(Aminomethyl)phenyl)propan-2-yl)-N^4-methyl-N^4-(2-phenylpyrimidin-4-yl)pyrimidine-2,4-diamine]

IC50 [µM] | Structure (SMILES)
≤ 20 | CN(c1ccnc(NC(C)(C)CN)n1)c1ccnc(-c2ccccc2)n1 [Example 27, N^2-(1-Amino-2-methylpropan-2-yl)-N^4-methyl-N^4-(2-phenylpyrimidin-4-yl)-pyrimidine-2,4-diamine]
≤ 20 | CN(c1cccc(-c2ccc(F)c(F)c2)n1)c1ccnc(NCCc2ccccc2)n1 [Example 144, N^4-(6-(3,4-Difluorophenyl)pyridin-2-yl)-N^4-methyl-N^2-phenethylpyrimidine-2,4-diamine]
≤ 20 | CC(C)[C@H](CCN1CCOCC1)Nc1nccc(N(C)c2ccnc(-c3ccccc3)n2)n1 [Example 62, (S)-N^4-Methyl-N^2-(4-methyl-1-morpholinopentan-3-yl)-N^4-(2-phenylpyrimidin-4-yl)pyrimidine-2,4-diamine]
≤ 20 | CN(c1ccnc(N[C@@H](CCO)Cc2ccccc2)n1)c1ccnc(-c2ccccc2)n1 [(3R)-3-((4-(methyl(2-phenyl-4-pyrimidinyl)amino)-2-pyrimidinyl)amino)-4-phenyl-1-butanol]
≤ 20 | CN(c1cccc(-c2cc(F)cc(F)c2)n1)c1ccnc(NCCc2ccccc2)n1 [Example 143, N^4-(6-(3,5-Difluorophenyl)pyridin-2-yl)-N^4-methyl-N^2-phenethylpyrimidine-2,4-diamine]
≤ 20 | C[C@@H](Cc1cccc(CN)c1)Nc1nccc(N(C)c2ccnc(-c3ccccc3F)n2)n1 [Example 83, N^2-((S)-1-(3-(Aminomethyl)phenyl)propan-2-yl)-N^4-(2-(2-fluorophenyl)pyrimidin-4-yl)-N^4-methylpyrimidine-2,4-diamine]
≤ 20 | CN(c1ccnc(NC[C@@H](O)c2ccccc2)n1)c1ccnc(-c2ccccc2)n1 [Example 111, (S)-2-(4-(Methyl(2-phenylpyrimidin-4-yl)amino)pyrimidin-2-ylamino)-1-phenyl-ethanol]
≤ 20 | C[C@@H](Cc1cc(C#N)ccc1Cl)Nc1nccc(N(C)c2ccnc(-c3ccccc3)n2)n1 [Example 41, (S)-4-Chloro-3-(2-(4-(methyl(2-phenylpyrimidin-4-yl)amino)pyrimidin-2-ylamino)-propyl)benzonitrile]
≤ 20 | CN(c1cccc(-c2cccc(Cl)c2)n1)c1ccnc(NCCc2ccccc2)n1 [Example 135, N^4-(6-(3-chlorophenyl)pyridin-2-yl)-N^4-methyl-N^2-phenethylpyrimidine-2,4-diamine]
≤ 20 | COc1nc(-c2ccccc2)nc(N(C)c2ccnc(N[C@@H](C)Cc3cccc(CNC(=O)[C@H](C)N)c3)n2)n1 [Example 125, (S)-N-((S)-3-((S)-2-(4-((4-Methoxy-6-phenyl-1,3,5-triazin-2-yl)(methyl)amino)-pyrimidin-2-ylamino)propyl)benzyl)-2-aminopropanamide]
≤ 20 | CSc1nccc(Nc2cc(-c3ccccc3)c(=O)n(C)c2)n1 [1-methyl-5-((2-(methylsulfanyl)-4-pyrimidinyl)amino)-3-phenyl-2(1H)-pyridinone]
≤ 20 | CN(c1cccc(-c2cccs2)n1)c1ccnc(NCCc2ccccc2)n1 [Example 150, N^4-Methyl-N^2-phenethyl-N^4-(6-(thiophen-2-yl)pyridin-2-yl)pyrimidine-2,4-diamine]
≤ 20 | CN(c1ccnc(NCC(O)c2ccccn2)n1)c1ccnc(-c2ccccc2)n1 (stereo not drawn) [Example 113]
≤ 20 | CC(Cc1ccc(F)c(CO)c1)Nc1nccc(N(C)c2cc(-c3ccccc3)c(=O)n(C)c2)n1 (stereo not drawn) [Example 177, 5-((2-(1-(4-Fluoro-3-(hydroxymethyl)phenyl)propan-2-ylamino)pyrimidin-4-yl)(methyl)amino)-1-methyl-3-phenylpyridin-2(1 H)-one]
≤ 20 | CN(c1ccnc(NCCc2ccccc2Cl)n1)c1nccc(-c2ccccc2)n1 [Example 185, N^2-(2-Chlorophenethyl)-N^4-methyl-N^4-(4-phenylpyrimidin-2-yl)pyrimidine-2,4-diamine]
≤ 20 | CCOC(=O)c1cnc(-c2ccccc2)nc1Nc1ccnc(NCCc2ccccn2)n1 [Example 98, Ethyl 2-phenyl-4-(2-(2-(pyridin-2-yl)ethylamino)pyrimidin-4-ylamino)pyrimidine-5-carboxylate]
